In the NIST ThermoML archive (doi:10.1021/je901085t):

Columns and labels:
[1] = wn = mass fraction of the nth substance listed; details: Capillary rise
[2] = Capillary rise

CC(F)F [1,1-difluoroethane] + CCC
[1]
Details | surface tension liquid-gas [mN/m]
248.15 K, w2 = 0.3497 | 14.65
248.24 K, w2 = 0.2008 | 15.35
248.37 K, w2 = 0.4922 | 13.88
253.14 K, w2 = 0.3497 | 13.96
253.15 K, w2 = 0.4922 | 13.25
253.19 K, w2 = 0.2008 | 14.7
258.1 K, w2 = 0.3497 | 13.22
258.1 K, w2 = 0.4922 | 12.55
258.15 K, w2 = 0.2008 | 14.02
263.1 K, w2 = 0.3497 | 12.43
263.18 K, w2 = 0.4922 | 11.93
263.19 K, w2 = 0.2008 | 13.32
268.13 K, w2 = 0.3497 | 11.85
268.16 K, w2 = 0.4922 | 11.19
268.19 K, w2 = 0.2008 | 12.72
273.08 K, w2 = 0.4922 | 10.49
273.15 K, w2 = 0.3497 | 11.2
273.19 K, w2 = 0.2008 | 12.04
278.16 K, w2 = 0.3497 | 10.31
278.18 K, w2 = 0.2008 | 11.35
278.18 K, w2 = 0.4922 | 9.895
283.16 K, w2 = 0.2008 | 10.48
283.16 K, w2 = 0.3497 | 9.754
283.18 K, w2 = 0.4922 | 9.111
288.15 K, w2 = 0.3497 | 9.186
288.17 K, w2 = 0.4922 | 8.51
288.18 K, w2 = 0.2008 | 9.752
293.13 K, w2 = 0.3497 | 8.519
293.16 K, w2 = 0.2008 | 9.136
293.16 K, w2 = 0.4922 | 7.919
298.1 K, w2 = 0.2008 | 8.465
298.1 K, w2 = 0.3497 | 7.79
298.15 K, w2 = 0.4922 | 7.255
303.15 K, w2 = 0.3497 | 6.986
303.18 K, w2 = 0.2008 | 7.708
303.2 K, w2 = 0.4922 | 6.616
308.11 K, w2 = 0.2008 | 7.125
308.11 K, w2 = 0.3497 | 6.317
308.46 K, w2 = 0.4922 | 5.985
313.16 K, w2 = 0.4922 | 5.421
313.18 K, w2 = 0.3497 | 5.675
313.19 K, w2 = 0.2008 | 6.518
318.13 K, w2 = 0.3497 | 5.133
318.14 K, w2 = 0.2008 | 5.897
318.14 K, w2 = 0.4922 | 4.913
323.16 K, w2 = 0.3497 | 4.602
323.17 K, w2 = 0.4922 | 4.269
323.18 K, w2 = 0.2008 | 5.202
328.12 K, w2 = 0.2008 | 4.614
328.12 K, w2 = 0.3497 | 3.958
328.15 K, w2 = 0.4922 | 3.789

CCC [propane]
[2]
Details | surface tension liquid-gas [mN/m]
283.16 K | 8.811
288.17 K | 8.134
293.13 K | 7.568
298.1 K | 6.915
303.12 K | 6.349
